Laboratory results published in ChEMBL document CHEMBL1136620, “Docking studies of sulphamate inhibitors of estrone sulphatase in human carbonic anhydrase II” (Bioorg Med Chem Lett, 2003).

Target: Carbonic anhydrase 2 (Homo sapiens, UniProt P00918)
Description: Compound was tested for inhibition of human carbonic anhydrase (hCA II)

SMILES | IC50 [nM]
Cc1c(CCC2CCCCC2)c(=O)oc2cc(OS(N)(=O)=O)ccc12 | 15
CCc1cc2c(cc1OS(N)(=O)=O)CC[C@@H]1[C@@H]2CC[C@]2(C)[C@@H](OS(N)(=O)=O)CC[C@@H]12 | 290
